In the NIST ThermoML archive (doi:10.1021/je0604232):

Assay: molar heat capacity at constant pressure; xn = mol fraction of the nth substance listed
Details: 101 kPa, Liquid

NCCNCCO [N-(2-aminoethyl)ethanolamine] + O
molar heat capacity at constant pressure [J/K/mol]
Details | x1 = 0.0999 | x1 = 0.1999 | x1 = 0.2995 | x1 = 0.4 | x1 = 0.5002 | x1 = 0.5997 | x1 = 0.7011 | x1 = 0.8003 | x1 = 0.8979 | x1 = 1
303.15 K | 100 | 121 | 141 | 161 | 181 | 201 | 221 | 240 | 258 | 279
308.15 K | 103 | 125 | 145 | 165 | 185 | 205 | 226 | 245 | 263 | 284
313.15 K | 104 | 127 | 147 | 167 | 187 | 207 | 227 | 247 | 265 | 285
318.15 K | 106 | 129 | 150 | 170 | 190 | 209 | 229 | 249 | 266 | 286
323.15 K | 107 | 131 | 152 | 172 | 192 | 211 | 231 | 250 | 267 | 287
328.15 K | 110 | 134 | 155 | 175 | 195 | 214 | 233 | 252 | 269 | 289
333.15 K | 112 | 137 | 158 | 178 | 197 | 216 | 235 | 254 | 271 | 290
338.15 K | 116 | 141 | 162 | 181 | 201 | 219 | 238 | 257 | 273 | 292
343.15 K | 120 | 146 | 167 | 185 | 204 | 223 | 241 | 260 | 275 | 293
348.15 K | 124 | 152 | 172 | 189 | 208 | 227 | 244 | 262 | 277 | 295
353.15 K | 130 | 158 | 177 | 194 | 213 | 231 | 248 | 265 | 279 | 296
